Data: publication PMC9490176 (Frontiers in Pharmacology, 2022)
Where two headings read alike, the source gives them in different places.

Legend:
[1] = test system: pyrotinib metabolism in rat liver microsomes (RLMs); assay: In vitro drug-drug interaction study: azole inhibition of pyrotinib metabolism (M1 formation) in RLMs; type: in vitro ADME, Sprague-Dawley (SD) rat; settings: for IC50: 0.3 mg/ml RLMs, 1 mM NADPH, 37°C, 30 min, n = 3; for Ki / αKi: RLMs, pyrotinib 1, 2, 4, 8 µM, Lineweaver-Burk analysis
Method: (§1) The rats were anesthetized with 10% chloral hydrate after 12 h of starvation. […] The rat liver tissue was then accurately removed and transferred to Petri dishes at 0–4°C. The tissues were homogenized in 0.15 mol/L KCl-PBS buffer and stored at 4°C. The homogenate (CR30NX, Eppendorf, Germany) was centrifuged at 9000 rpm at 4°C for 30 min. The supernatant was transferred to another tube and was centrifuged at 105000 rpm at 4°C for 60 min. The precipitate containing liver microsomes was removed and suspended in 0.15 mol/L KCl-PBS buffer (containing 0.25 mol/L sucrose) and stored at −80°C for later use. The liver microsomal concentration was 8.838 mg/ml after the determination with the BCA protein quantification kit (Thermo Scientific, Waltham, MA, United States).
Waters Acquity UPLC I-Class (Waters, USA) was used to separate pyrotinib and midazolam. A binary solvent manager (BSM) and sample manager with a flow-through needle (SM-FTN) were used in the UPLC system. The metabolites’ effective separation was achieved using Acquity UPLC HSS T3 (100 × 2.1 mm, 1.8 μm particle size) (Waters Corporation, Milford, MA, USA) with a mobile phase of acetonitrile (solvent A) and 0.1% formic acid water containing 20 mmol ammonium acetate (solvent B). The gradient program was set as following: 0–0.3 min 10–30% A; 0.3–1 min 30–95% A; 1–2 min 95% A; 2–2.3 min 95–10% A. The mobile phase’s flow rate was 0.4 mL/min, the column temperature was set as 40 °C, and the injection volume was 2 μL. The XEVO TQD triple quadrupole mass spectrometer was equipped with an electrospray ionization (ESI) source, and the multiple reaction monitoring (MRM) mode was selected for quantification. The data were collected using the Mass lynx 4.1 software (Waters Corp.). Mass spectral data were obtained in positive electrospray mode (ESI+) in MRM mode. Nitrogen was used as desolvation (1000 L/h) and cone gases (50 L/h). The ion monitoring voltage conditions were as follows: capillary voltage, 2.5 kV; source temperature, 150°C; desolvation temperature, 500°C. Various reaction monitoring methods were used for quantitative analysis.
200 µl of the incubation mixture was set up as following: 0.3 mg/ml RLMs, 100 mM potassium phosphate buffer (pH 7.4), 1 mM NADPH, and three azole antifungal drugs. […] For fluconazole and itraconazole, the concentrations of them were all adjusted to 0.01, 0.1, 1, 5, 10, 50, and 100 µM. […] The ingredients were combined and pre-warmed for 5 min at 37°C. The reaction was initiated with NADPH and incubated at 37°C for 30 min. Then, 200 µl of acetonitrile-midazolam solution (containing midazolam 200 ng/ml) was added and the mixture was vortexed for 2 min to stop the reaction. After been centrifuged at 13000 rpm for 5 min, 2 µl aliquot of the supernatant was then used for the UPLC-MS/MS analysis.
(§2) GraphPad Prism 7.0 software (GraphPad Software Inc.) was used to calculate the enzyme kinetic parameters of substrates which include Vmax, Km, IC50, Ki, and αKi values. The enzyme inhibition mode was obtained using the Linear Lineweaver-Burk plots. The PK characteristics, maximal plasma concentration (Cmax), time to peak plasma concentration (Tmax), apparent volume of distribution (Vz/F), area under the plasma concentration-time curve (AUC), elimination half-life (t1/2), plasma clearance (Cl/F), and mean residence time (MRT), were calculated using DAS (Drug and Statistics) software (Version 3.2.8, The People’s Hospital of Lishui, China). The one-way ANOVA and a Dunnet’s multiple range test were used for the statistical comparisons within groups with SPSS software (Version 25.0; SPSS Inc.). Statistical significance was set at p < 0.05.

[2] = Stability evaluation in rat plasma (UPLC-MS/MS method validation); type: in vitro ADME; settings: n = 6
Source text: The test method was extensively verified regarding precision, accuracy, and stability, according to the EMA (European Medicines Agency) 2011 and FDA (Food and Drug Administration) 2018 criteria. In six replicates, quality control (QC) samples were generated at low, medium, and high concentrations and were utilized to validate the procedure. This method was designed to conform to EMA and FDA regulatory requirements for bioanalytical methods.

[3] = design: method as in Shi et al., 2011; settings: with ketoconazole compared with ruxolitinib alone; ref Shi et al., 2011; cited from earlier work
[4] = In vivo pharmacokinetics of pyrotinib in rats with or without azole pretreatment; design: species or system Sprague-Dawley rats; settings: rat; for AUC(0-inf) / AUC(0-t) / CL/F / Cmax / Vd/F: male, Sprague-Dawley, plasma, po, 8 mg/kg; for AUC(0-inf) / AUC(0-t) / CL/F / Cmax / Vd/F / MRT(0-t) / MRT(0-∞) / Tmax / t1/2: 8 mg/kg pyrotinib oral; for AUC(0-inf) / AUC(0-t) / CL/F / Cmax / MRT(0-t) / MRT(0-∞) / Tmax / t1/2: n = 6; for Vd/F: n = 6, read-out: Vz/F
Method: Male Sprague-Dawley rats (180–220 g) were supplied by the Experimental Animal Center of Wenzhou Medical University. The animals were placed in a controlled environment of 20–26°C and 55 ± 15% relative humidity under a 12 h light-dark cycle. Except for the 12-h fasting period before the PK study, all rats were fed a standard rodent diet and freely consumed tap water. All experimental procedures and protocols were reviewed and approved by the Animal Care and Use Committee of the Wenzhou Medical University (No. wydw 2019-650), following the Guidelines for The Care and Use of Laboratory Animals. […] After the last administration of the three azoles or 0.5% CMC-Na (control group), a single dose of 8 mg/kg pyrotinib was administered orally to all rats in each group. Each group consisted of 6 rats. The azole antifungal medication was dissolved in 0.5% carboxymethylcellulose sodium solution (CMC-Na). […] The plasma was obtained by centrifuging the blood samples at 4000 rpm for 10 min at 4°C and stored at −80°C until analysis. The frozen plasma samples were thawed at room temperature and uniformly mixed; 50 μL of plasma sample was removed and mixed with 150 μL acetonitrile-midazolam solution (containing midazolam 200 ng/ml) to precipitate the proteins, followed by vortexing for 30 s and centrifuging at 13,000 rpm for 5 min. Then 150 μL of the supernatant was collected and placed into UPLC vials with 2 μL of sample was subjected to UPLC-MS/MS analysis. GraphPad Prism 7.0 software (GraphPad Software Inc.) was used to calculate the enzyme kinetic parameters of substrates which include Vmax, Km, IC50, Ki, and αKi values. The enzyme inhibition mode was obtained using the Linear Lineweaver-Burk plots. The PK characteristics, maximal plasma concentration (Cmax), time to peak plasma concentration (Tmax), apparent volume of distribution (Vz/F), area under the plasma concentration-time curve (AUC), elimination half-life (t1/2), plasma clearance (Cl/F), and mean residence time (MRT), were calculated using DAS (Drug and Statistics) software (Version 3.2.8, The People’s Hospital of Lishui, China). The one-way ANOVA and a Dunnet’s multiple range test were used for the statistical comparisons within groups with SPSS software (Version 25.0; SPSS Inc.). Statistical significance was set at p < 0.05.

[5] = design: method as in Ma et al., 2017; settings: following the initial dose of 80–400 mg pyrotinib; ref Ma et al., 2017; cited from earlier work
[6] = test system: rat liver microsomes (RLMs); assay: Michaelis-Menten kinetics of pyrotinib metabolism in RLMs; type: in vitro ADME, Sprague-Dawley (SD) rat; settings: pyrotinib 0.5–25 μM in RLMs
Method: as §1, with “States). […]” for “States).”
as §2, with “The enzyme inhibition mode was obtained using the Linear Lineweaver-Burk plots.” left out, “The one-way ANOVA and a Dunnet’s multiple range test were used for the statistical comparisons within groups with SPSS software (Version 25.0; SPSS Inc.). Statistical significance was set at p < 0.05.” left out

[7] = 4°C, 24 h, high concentration (pyrotinib 4500, pyrotinib M1 0.75 μM)
[8] = 4°C, 24 h, low concentration (pyrotinib 15, pyrotinib M1 0.015 μM)
[9] = 4°C, 24 h, medium concentration (pyrotinib 150, pyrotinib M1 0.15 μM)
[10] = Room temperature, 6 h, high concentration (pyrotinib 4500, pyrotinib M1 0.75 μM)
[11] = Room temperature, 6 h, low concentration (pyrotinib 15, pyrotinib M1 0.015 μM)
[12] = Room temperature, 6 h, medium concentration (pyrotinib 150, pyrotinib M1 0.15 μM)
[13] = −80°C, 7 days, high concentration (pyrotinib 4500, pyrotinib M1 0.75 μM)
[14] = −80°C, 7 days, low concentration (pyrotinib 15, pyrotinib M1 0.015 μM)
[15] = −80°C, 7 days, medium concentration (pyrotinib 150, pyrotinib M1 0.15 μM)
[16] = after 40 mg/kg fluconazole for 7 days
[17] = after 40 mg/kg itraconazole for 7 days
[18] = after 40 mg/kg ketoconazole for 7 days

Compound: CC(=O)N1CCN(c2ccc(OCC3COC(Cn4ccnc4)(c4ccc(Cl)cc4Cl)O3)cc2)CC1 (stereo not shown) [ketoconazole, Ketoconazole]
- IC50 [1]: 60 nM
- Ki [1]: 132 nM
- αKi [1]: 0.077 µM

Compound: CCOc1cc2ncc(C#N)c(Nc3ccc(O)c(Cl)c3)c2cc1NC(=O)/C=C/[C@@H]1CCCN1C [Pyrotinib M1, O-depicolyl pyrotinib]
- Stability in rat plasma, RE [2, 7]: 103.58%
- Stability in rat plasma, RE [2, 8]: 104.44%
- Stability in rat plasma, RE [2, 9]: 108.67%
- Stability in rat plasma, RE [2, 10]: 108.42%
- Stability in rat plasma, RE [2, 11]: 102.22%
- Stability in rat plasma, RE [2, 12]: 102.44%
- Stability in rat plasma, RE [2, 13]: 104.47%
- Stability in rat plasma, RE [2, 14]: 109.33%
- Stability in rat plasma, RE [2, 15]: 107.56%

Compound: OC(Cn1cncn1)(Cn1cncn1)c1ccc(F)cc1F [fluconazole, Fluconazole]
- IC50 [1]: 11600 nM
- Ki [1]: 15100 nM
- αKi [1]: 19.01 µM

Compound: N#CC[C@H](C1CCCC1)n1cc(-c2ncnc3[nH]ccc23)cn1 [ruxolitinib]
- increase of plasma exposure [3]: 91%

Compound: CCOc1cc2ncc(C#N)c(Nc3ccc(OCc4ccccn4)c(Cl)c3)c2cc1NC(=O)/C=C/[C@H]1CCCN1C [pyrotinib, Pyrotinib]
- AUC(0-inf) [4, 16]: 29200 ng·h/mL
- AUC(0-t) [4, 16]: 29100 ng·h/mL
- CL/F [4, 16]: 4.83 mL/min/kg
- Cmax [4, 16]: 4290 ng/mL
- Vd/F [4, 16]: 1.09 ± 0.21 L/kg
- AUC(0-inf) [4, 17]: 18000 ng·h/mL
- AUC(0-t) [4, 17]: 18000 ng·h/mL
- CL/F [4, 17]: 7.5 mL/min/kg
- Cmax [4, 17]: 3000 ng/mL
- Vd/F [4, 17]: 1 ± 0.58 L/kg
- AUC(0-inf) [4, 18]: 36500 ng·h/mL
- AUC(0-t) [4, 18]: 36300 ng·h/mL
- CL/F [4, 18]: 3.83 mL/min/kg
- Cmax [4, 18]: 4680 ng/mL
- Vd/F [4, 18]: 0.89 ± 0.24 L/kg
- AUC(0-inf) ([4]; control group (0.5% CMC-Na)): 17800 ng·h/mL
- AUC(0-t) ([4]; control group (0.5% CMC-Na)): 17800 ng·h/mL
- CL/F ([4]; control group (0.5% CMC-Na)): 7.67 mL/min/kg
- Cmax ([4]; control group (0.5% CMC-Na)): 3060 ng/mL
- Vd/F ([4]; control group (0.5% CMC-Na)): 0.81 ± 0.25 L/kg
- MRT(0-t) [4, 16]: 5.28 ± 0.24 H
- MRT(0-∞) [4, 16]: 5.37 ± 0.27 H
- Tmax [4, 16]: 3.83 ± 0.41 H
- t1/2 [4, 16]: 2.66 ± 0.15 H
- MRT(0-t) [4, 17]: 4.55 ± 0.36 H
- MRT(0-∞) [4, 17]: 4.56 ± 0.37 H
- Tmax [4, 17]: 4.00 ± 1.10 H
- t1/2 [4, 17]: 1.47 ± 0.63 H
- MRT(0-t) [4, 18]: 5.38 ± 0.38 H
- MRT(0-∞) [4, 18]: 5.47 ± 0.38 H
- Tmax [4, 18]: 4.00 ± 1.10 H
- t1/2 [4, 18]: 2.66 ± 0.20 H
- MRT(0-t) ([4]; control group (0.5% CMC-Na)): 4.32 ± 0.40 H
- MRT(0-∞) ([4]; control group (0.5% CMC-Na)): 4.32 ± 0.42 H
- Tmax ([4]; control group (0.5% CMC-Na)): 3.50 ± 1.23 H
- t1/2 ([4]; control group (0.5% CMC-Na)): 1.26 ± 0.54 H
- decrease of Cl/F compared to the control group ([4]; coadministrated with ketoconazole): approximately 50%
- decrease of Cl/F compared with control group ([4]; fluconazole group): 0.37 fold
- increase of AUC(0-t) compared with control group ([4]; fluconazole group): 0.63 fold
- increase of Cmax compared with control group ([4]; fluconazole group): 0.40 fold
- decrease of Cl/F compared with control group ([4]; ketoconazole group): 0.50 fold
- increase of AUC(0-t) compared with control group ([4]; ketoconazole group): 1.04 fold
- increase of Cmax compared with control group ([4]; ketoconazole group): 0.53 fold
- mean terminal half-life (t1/2) [5]: 11.4 to 15.9 h
- time required to attain maximum plasma concentration (Tmax) [5]: 3 to 5 h
- Stability in rat plasma, RE [2, 7]: 101.04%
- Stability in rat plasma, RE [2, 8]: 102.40%
- Stability in rat plasma, RE [2, 9]: 107.05%
- Stability in rat plasma, RE [2, 10]: 103.56%
- Stability in rat plasma, RE [2, 11]: 105.41%
- Stability in rat plasma, RE [2, 12]: 106.18%
- Stability in rat plasma, RE [2, 13]: 100.79%
- Stability in rat plasma, RE [2, 14]: 98.95%
- Stability in rat plasma, RE [2, 15]: 108.01%
- Km [6]: 4.09 µM
- Vmax [6]: 58.33 pmol/min/mg protein

Compound: CCC(C)n1ncn(-c2ccc(N3CCN(c4ccc(OCC5COC(Cn6cncn6)(c6ccc(Cl)cc6Cl)O5)cc4)CC3)cc2)c1=O (stereo not shown) [itraconazole, Itraconazole]
- inhibitory effect on pyrotinib in vivo ([4]; 40 mg/kg azole for 7 days, then 8 mg/kg pyrotinib oral): no inhibitory effect
- IC50 [1]: 270 nM
- Ki [1]: 496 nM
- αKi [1]: 0.334 µM
